From US20150239824A1, “BRANCHED OR MACROCYCLIC POLYAMINES AND USES THEREOF” (UNIVERSITE DE STRASBOURG, priority 2012, published 2015)
“Also recorded” adds a separate entry of the source.

Tests used:
NIH3T3 cells [1] = assay: Cell entry of polyamines (Cy3 fluorescence, injection); type: cell-based, mouse; details: 100 μM, 20 min
Method: (§1) Polyamine compounds were dissolved in Milli-Q water to give a stock solution of 30 mM. For immunostaining and microscopy experiments, polyamine compounds were added to the cell medium at a final concentration of 100 μM, except for experiments which tested efficiency. For immunostaining experiments, NIH3T3 cells were incubated with Blebbistatin (30 μM), ML7 (10 μM), Y27632 (10 μM), Cytochalasin D (1 μM) (Sigma-Aldrich) for 30 min, LY294002 (50 μM) (Sigma-Aldrich) for 30 minutes. Latrunculin A (1.5 μM) (Sigma-Aldrich) was added for 5 min. After additional 20 min incubation with 100 μM polyamine, cells were fixed and stained.
Fluorescent images were taken in a Fluorescence Nikon Ti microscope (60× oil objective, NA 1.25) combined with a Photometrics CoolSNAP HQ2 camera and NIS acquisition software.

F-actin = target: T1, F-actin (Oryctolagus cuniculus, UniProt P68135); assay: Critical concentration plots, free barbed ends; type: biochemical, rabbit; details: F-actin at steady state
T1 construct: Actin was purified from rabbit skeletal muscle, isolated in CaATP-G-actin form by size exclusion chromatography; from tissue; host or cells: rabbit skeletal muscle
Method: (§2) Critical concentration plots were performed by serial dilution of F-actin (10% pyrenyl-labeled) in F buffer containing the desired amounts of BPA/MPA. Pyrenyl-actin fluorescence was read after overnight incubation in the dark.
(§3) Actin was purified from rabbit skeletal muscle, isolated in CaATP-G-actin form by size exclusion chromatography in G buffer (5 mM Tris-Cl—, pH 7.8, 0.1 mM CaCl2, 0.2 mM ATP, 1 mM DTT, 0.01% NaN3) and pyrenyl-labeled as described^1. Human gelsolin, mouse profilin, mouse Capping Protein and human ADF were bacterial recombinant proteins, and Arp2/3 was purified from bovine brain as described in Egile et al.^39. His6-tagged human N-WASP was expressed in sf9 cells using the baculovirus expression system and purified as described^39. Spectrin-actin seeds were isolated and purified from human blood cells^40.

NIH3T3 cells [2] = assay: Immunofluorescence of microtubule and intermediate filament organization; type: cell-based, mouse; details: 100 μM, 20 min
Method: (§4) Cells were fixed in 3% PFA (Sigma-Aldrich) for 17 min and then permeabilized with 0.5% Triton solution (Sigma-Aldrich) for 3 min and rinsed twice with 1× PBS. For actin and focal contacts staining, cells were incubated with Alexa 488 phalloidin (1:200, Molecular Probes) and anti-paxillin monoclonal primary antibody (1:50, BD Biosciences) for 45 min at RT. Samples were finally mounted in 50% Glycerol/1× PBS on glass slides and protected from drying. For the intermediate filaments staining, cells were quenched in NaBH4/PBS solution for 10 min at RT. Cells were incubated first with anti-vimentin (1:500, Convance) for 1 h and then with goat anti-guinea pig Dylight 594 (1:1000, Jackson) for 45 min at RT. Microtubules were fixed using methanol at −20° C. for 10 min and stained with mouse monoclonal anti-alpha tubulin (1:50, Sigma-Aldrich) for 45 min at RT.

NIH3T3 cells [3] = assay: Growth of lamellipodia / increase in projected cell area in NIH3T3 cells; type: cell-based, mouse; details: 100 μM
Method: as §1
(§5) Increase in cell area for given time point (n=5, 10 and 20 min) was calculated by (A1n-A0)/A0, where A0 and A1n are the areas before and after polyamine addition, respectively. Kymographs for the analysis of actin retrograde flow in the lamellipodia region were performed in ImageJ. Moving features were visualized as diagonal streaks with slope depending on the velocity of movement.
as §4
NIH3T3 mouse fibroblast and REF52 rat embryo fibroblasts (ATCC) were cultured in DMEM supplemented with 10% calf bovine serum (BCS, Sigma-Aldrich) or fetal bovine serum (FCS, Hyclone) and 1% Pen/Streptomycin (InVitrogen). […]

actin = target: T2, actin (Oryctolagus cuniculus, UniProt P68135); assay: Actin assembly and bundling (light scattering, pyrenyl-actin fluorescence, electron microscopy); type: biochemical, rabbit; details: for bundling / polymerization of actin filaments in vitro: light scattering, neomycin vs BPA: low ionic strength (G-buffer), up to at least 100 μM
T2 construct: Actin was purified from rabbit skeletal muscle, isolated in CaATP-G-actin form by size exclusion chromatography; from tissue; host or cells: rabbit skeletal muscle
Method: (§6) Actin assembly was monitored using as probes the increase in light scattering intensity (310 nm, 90° angle) and in the fluorescence of pyrenyl-actin (excitation 366 nm, emission 407 nm). Measurements were made at room temperature in a Xenius Safas spectrofluorimeter. CaATP-G-actin was converted into MgATP-G-actin by addition of 20 μM MgCl2 and 0.2 mM EGTA to a solution of 10 μM CaATP-G-actin in G buffer. Polymerization was triggered by addition of MgCl2 (1 mM final), EGTA (0.2 mM final) and KCl as indicated to MgATP-G-actin. The 1:1 CaATP-actin complex was obtained by removing free ATP by two consecutive treatments of CaATP-G-actin in G buffer with 10% suspension vol/vol of Dowex-I (BioRad) in G buffer without ATP.
as §3
Electron microscopy observation of actin assemblies in the presence of C7N6 MPA was performed using a Philips CM12 electron microscope at 80 kV. Samples containing actin (2 μM) in either in G or F form and C7N6 MPA were prepared and placed on glow-discharged carbon-coated grids.

NIH3T3 cells [4] = assay: Actin filament stability in Triton-treated cells; type: cell-based, mouse; details: 100 μM, then 0.1% Triton
[5] = target: T3, actin with Capping Protein (Oryctolagus cuniculus, UniProt P68135); assay: Critical concentration and steady-state F-actin in the presence of Capping Protein; type: biochemical, rabbit; details: 100 μM, 1 μM total actin
T3 construct: Actin was purified from rabbit skeletal muscle, isolated in CaATP-G-actin form by size exclusion chromatography; from tissue; host or cells: rabbit skeletal muscle (actin); bacteria (Capping Protein)
Method: as §2, §3

[6] = target: T4, actin filament barbed ends (Oryctolagus cuniculus, UniProt P68135); assay: Seeded barbed end growth assay (spectrin-actin seeds); type: biochemical, rabbit; details: neomycin up to at least 100 μM
T4 construct: Actin was purified from rabbit skeletal muscle, isolated in CaATP-G-actin form by size exclusion chromatography; from tissue; host or cells: rabbit skeletal muscle
Method: as §6
Seeded barbed end growth assays were performed at 2.5 μM actin and 0.1 nM spectrin-actin seeds^38. Pointed end growth assays were performed similarly but using preformed gelsolin-actin complexes (2 nM final) as seeds. The initial rate of fluorescence increase was measured.
(§7) Actin was purified from rabbit skeletal muscle, isolated in CaATP-G-actin form by size exclusion chromatography in G buffer (5 mM Tris-Cl—, pH 7.8, 0.1 mM CaCl2, 0.2 mM ATP, 1 mM DTT, 0.01% NaN3) and pyrenyl-labeled as described^1. […]

F-actin with ADF = target: T5, F-actin with ADF (Oryctolagus cuniculus, UniProt P68135); assay: ADF-induced depolymerization of gelsolin-capped filaments and sedimentation assay; type: biochemical, rabbit
T5 construct: Actin was purified from rabbit skeletal muscle, isolated in CaATP-G-actin form by size exclusion chromatography; from tissue; host or cells: rabbit skeletal muscle (actin); bacteria (ADF, gelsolin)
Excerpt: Actin-based motile processes result from site-directed initiation of actin assembly by two major signal-responsive protein machineries. WASP family proteins use the Arp2/3 complex to branch filaments at the membrane and assemble a dendritic protrusive meshwork, while formins initiate barbed-end processive assembly of actin bundles. In both cases, force is produced by barbed-end growth fueled by regulated treadmilling. Treadmilling that drives the formation of dendritic actin arrays is enhanced by the synergistic effects of capping proteins, profilin and Actin Depolymerizing Factor (ADF/cofilin). ADF is known to destabilize actin filaments, promoting a large increase in pointed end depolymerization rate, the limiting step in filament treadmilling^17. FIG. 6 Ba-c confirms that gelsolin-capped filaments depolymerize up to a maximum of 30-fold faster in the presence of ADF, in agreement with previous data^17. […] In the presence of cyclic or branched polyamines, the rate of depolymerization was much less enhanced by ADF (about three-fold at 3 μM ADF, versus 30-fold in the control without polyamines).
as §7

[7] = target: T6, N-WASP-coated beads, actin-based propulsion (Oryctolagus cuniculus, UniProt P68135); assay: Reconstituted motility assay of N-WASP-coated beads; type: biochemical; details: 50 μM added a few minutes after initiation of comet tail formation
T6 construct: Actin was purified from rabbit skeletal muscle, isolated in CaATP-G-actin form by size exclusion chromatography; from tissue; host or cells: rabbit skeletal muscle (actin); sf9/baculovirus (N-WASP); bacteria (ADF, profilin, Capping Protein); bovine brain (Arp2/3)
Method: Reconstituted motility assays were performed using 2 μm diameter carboxylated polystyrene beads functionalized with N-WASP (170 nM, 2 hours, followed by 1% BSA neutralization for 20 min)^19. Beads were placed in a reconstituted motility mix containing 7.5 μM F-actin, 75 nM Capping Protein, 2 μM profilin, 7 μM ADF, 75 nM Arp2/3 complex in × buffer (10mM HEPES, 0.1M KCl, 1 mM MgCl2, 0.1 mM CaCl2, 1 mM ATP, 7 mM DTT, 1.5 mM DABCO at pH 7.8, 0.5% BSA and 0.2% methylcellulose). C8N6 BPA was then added at 50 μM. Observations were made using a phase contrast Olympus AX70 microscope controlled by MetaMorph 6.3r7 with CCD camera and 20× phase objective. Data analysis was performed to extract bead velocity with ImageJ software. Bead velocity was measured and averaged on 10-15 beads.
as §3

REF 52 cell = assay: Actin retrograde flow in lamellipodia; type: cell-based, rat; details: lamellipodia region, kymographs, n=6 cells
Method: as §5
NIH3T3 mouse fibroblast and REF52 rat embryo fibroblasts (ATCC) were cultured in DMEM supplemented with 10% calf bovine serum (BCS, Sigma-Aldrich) or fetal bovine serum (FCS, Hyclone) and 1% Pen/Streptomycin (InVitrogen). Cells were grown at 37° C. and 5% CO2. For microscopy and immunostaining, cells were trypsinized (0.25% Trypsin-EDTA, InVitrogen), centrifuged and plated on glass coverslips. For live cell observation, Leibovitz's L-15 1× medium (InVitrogen) supplemented with 10% serum (FCS for REF52 and BCS for NIH3T3 cells) and 1% antibiotics was used.
For retrograde flow experiments, surfaces were coated with poly-lysine (Sigma-Aldrich) as described in Verkhovsky et al.^20.
Actin retrograde flow velocity experiments were performed in a Leica DM 2500 Microscope with a 100× oil objective at 37° C. Data acquisition was 1 image/5 sec.

| critical concentration for filament assembly (F-actin) | critical concentration for filament assembly (F-actin; listed as BPA) | assembly of actin at physiological ionic strength (actin; 1 mM MgCl2, 0.1 M KCl) | bundling / polymerization of actin filaments in vitro (actin; listed as BPA) | nucleation / short polymers in the presence of capping protein [5] | ADF-induced increase in rate of F-actin depolymerization (F-actin with ADF; gelsolin-capped filaments) | propulsion rate of N-WASP-coated beads [7] | Compound | entry into cells (NIH3T3 cells [1]) | entry into cells (NIH3T3 cells [1]; listed as Cy3-labeled C8N6 BPA) | organization of microtubules and intermediate filaments (NIH3T3 cells [2]) | focal contacts (paxillin immunofluorescence) (NIH3T3 cells [3]; 20 min) | actin bundles within the lamellipodial array (NIH3T3 cells [3]; 20 min, actin staining) | growth of lamellipodia (NIH3T3 cells [3]; NIH3T3 cells, compound added to the cell culture medium) | bundling / polymerization of actin filaments in vitro (actin) | stabilization of actin filaments in Triton-treated cells (NIH3T3 cells [4]) | nucleation / short polymers in the presence of capping protein ([5]; listed as BPA) | inhibition of barbed-end growth [6] | steady state of actin assembly in the presence of ADF (F-actin with ADF; sedimentation, F-actin 3 μM, 0.3 mM polyamine, one hour) | actin retrograde flow velocity (REF 52 cell) |
| --- | --- | --- | --- | --- | --- | --- | --- | --- | --- | --- | --- | --- | --- | --- | --- | --- | --- | --- | --- |
|  |  |  |  |  |  |  | CC[N+](CC)(CC)CCC[N+]1=C(/C=C/C=C2/N(CCCCCC(=O)NCCCN(CCCN)CCCCCCCCN(CCCN)CCCN)c3ccccc3C2(C)C)C(C)(C)c2ccccc21 [C8N6 BPA-Cy3] | the polyamines enter the cells | entered the cell and displayed the same effect as the unlabeled C8N6 BPA; also recorded: the polyamines enter the cells |  |  |  |  |  |  |  |  |  |  |
| not significantly affected | strictly superimposable | induced assembly of actin | massive bundling is induced | enhance nucleation by capping proteins | greatly weakened | dramatic decrease in propulsion rate | NCCCN(CCCN)CCCCCCCCN(CCCN)CCCN [C8N6 BPA] |  |  | no effect on microtubules and intermediate filaments organization | exhibited the expected distribution and shapes of focal contacts | bundles of actin arranged in microspikes were observed | promote growth of lamellipodia | induce ATP sensitive bundling of actin filaments | stabilizes actin filaments in Triton-treated cells like Jasplakinolide | stabilizes a greater number of short polymers in the presence of capping protein | inhibition | practically unaffected; also recorded: not affected | clear reduction in the actin retrograde flow |
|  |  |  |  |  |  |  | neomycin [reference compound] |  |  |  |  |  |  | does not induce bundling of actin; also recorded: does not promote polymerization of actin |  |  | does not inhibit barbed-end growth; also recorded: not inhibited |  |  |
